Test results: patent US7968572B2, “Nitrogen-containing heterocyclic compound and pharmaceutical application thereof” (Ono Pharmaceuticals Co., Ltd., priority 2005, dated 2011)

What was measured:
[1] = system: TNF-α production stimulated by lipopolysaccharide (LPS) in THP-1; test: Inhibitory activity against TNF-α production using human cell lines (LPS-stimulated THP-1); assay type: cell-based; details: 1.5 h, THP-1 cells, LPS stimulation, 90 minutes at 37° C., TNF-α by ELISA
Experimental: Inhibitory Activity against TNF-α Production using Human Cell Lines
Using THP-1 which is a human monocytic cell line, the inhibitory effect of the compound of the present invention against TNF-α production stimulated by lipopolysaccharide (LPS) was studied.
Each 50 μL of lipopolysaccharide (LPS; 055:B5, Difco) prepared to a concentration of 40 ng/mL using RPMI-1640 medium containing 10% fetal calf serum (hereinafter abbreviated to RPMI-1640) and RPMI-1640 containing the compound of the present invention was added to a 96-well plate for cell culture. 100 μL of the cell suspension of THP-1 (Dainippon Pharmaceutical Co., Ltd, #06-202) prepared to a cell density of 2×10^6 cells/mL using RPMI-1640 was added and cultured for 90 minutes at 37° C. in an incubator (5% CO2, 95% air). After completion of the reaction, the culture medium supernatant was recovered and the amount of produced TNF-α was measured using an ELISA kit (Invitrogen, #850090192).
The inhibitory activity against TNF-α production, which is the effect of the compound of the present invention, was calculated as an inhibition rate (%) by the following equation: Inhibition rate (%)={(AC−AX)/(AC−AB)}×100
wherein AB is a measured value without LPS induction;
AC is a measured value with LPS induction in the absence of a test compound; and
AX is a measured value with LPS induction in the presence of a test compound.
Inhibition rate of compounds with each concentration was calculated, and a value indicating 50% inhibition (IC50) was determined from the inhibition curve.

[2] = system: TNF-α production induced by lipopolysaccharide (LPS) in rats; test: Rat cytokine-production model; assay type: in vivo; details: male SD rat, oral 0.3 mg/kg, LPS 10 μg/kg intravenously after 8 hours, plasma TNF-α ninety minutes after LPS; read-out: Inhibition rate (%) (Dose of compound: 0.3 mg/kg)
Experimental: Rat Cytokine-Production Model
The in vivo effect of the compound of the present invention was studied on TNF-α production induced by lipopolysaccharide (LPS) in rats.
A vehicle containing the compound of the present invention was orally administered to male SD rat (Charles River Japan, Inc.), and after 8 hours, lipopolysaccharide (LPS, 055:B5, Difco) was intravenously administered at the dose of 10 μg/kg (5 animals/group). Only a vehicle was orally administered to a control group (5 animals). Ninety minutes after the LPS treatment, heparinized blood collection was performed via the abdominal vena cava under anesthesia with ether, and blood plasma was obtained by centrifugation (12,000 rpm, 3 minutes, 4° C.). The obtained blood plasma sample was stored at −80° C. until it was used. TNF-α in the blood plasma was measured using an ELISA kit from R&D System (#RTA00).
The inhibitory activity of the compound of the present invention against TNF-α production was calculated as an inhibition rate (%) according to the following equation: Inhibition rate (%)={(AC−AX)/AC}×100
wherein AC is a measured value in case where no test compound was administered under LPS induction, and
AX is a measured value in case where a test compound was administered under LPS induction.

[3] = Evaluation of artificial lipid membrane binding using a Biacore S51 system; details: for Binding Level (RU): compound 50 μM, DOPA liposomes on Sensor Chip L1, 37° C., PBS/5% DMSO (pH 7.4 or pH 6.0); for Judgment: phospholipidosis inducing activity judged from artificial lipid membrane binding
Experimental: Evaluation of Artificial Lipid Membrane Binding using a Biacore S51 (Registered Trademark) System
Using an aspirator, 10 mM of 1,2-dioleoyl-sn-glycero-3-phosphate monosodium salt (hereinafter abbreviated to DOPA) chloroform solution was evaporated to be dryness, and 0.6 mL of PBS/5% dimethyl sulfoxide (hereinafter abbreviated to DMSO) was added thereto. After carrying out thorough suspension by vortex, freezing and thawing were repeated for 5 times. Liposomes were prepared using a liposome preparation device (manufactured by Avestin Inc.) and two syringes and diluted to be 0.5 mM with PBS/5% DMSO just before the immobilization.
Each compound having a final concentration in PBS/5% DMSO of 50 μM was prepared by adding 38 μL of 1× PBS to 2 μL of 10 mM DMSO solution and further adding 360 μL of 1× PBS/5% DMSO and measured.
All of the following analyses were carried out using the Biacore S51 (registered trademark) system, and the measuring conditions were set up by Biacore S51 Control Software.
The measuring temperature was set to be 37° C., and PBS/5% DMSO (pH 7.4 or pH 6.0) was used as the buffer. Series S Sensor Chip L1 was used as the sensor chip. DOPA was immobilized on one of the measuring spots on the sensor surface, and the central spot was used as the reference.
Immobilization of the liposomes was carried out for about 3 minutes at a flow rate of 10 μL/minute, and then each compound was added thereto at a flow rate of 30 μL/minute to measure the interaction. The measuring conditions are as shown in the following.
Assay buffer: PBS/5% DMSO (pH 7.4 or pH 6.0)
Measuring temperature: 37° C.
Sensor chip: Series S Sensor Chip L1
Flow rate: 10 μL/minute at the time of liposome immobilization, 30 μL/minute at the time of interaction measurement
Regeneration: 20 mM CHAPS (3-[(3-cholamidopropyl)dimethylammonio]-1-propanesulfonate), an isopropanol/50 mM aqueous solution of sodium hydroxide=40/60 (volume ratio) mixed solution (60 seconds)
The data treatment was carried out in accordance with the method of Abdiche et al. (Analytical Biochemistry, 328, 233-243 (2004)) using Biacore S51 Evaluation Software.
After correcting infinitesimal error of the concentration of DMSO contained in the sample solution, the value of binding response (RU) obtained by subtracting the value of reference was divided by the sample molecular weight. Additionally, since the thus obtained value is proportional to the capturing amount of liposome, it was divided by the capturing amount at the time of the cycling and multiplied by 10^6 to be used as the correction value (correction value=1000000×RU (compound to be tested)/molecular weight (compound to be tested) RU (liposome)).
By adding propranolol, amiodarone, desipramine, imipramine and procaine as controls, it was confirmed that variation of the binding response is within about 10 to 15%.
Compounds having a binding response value after correction of 100 or more were judged positive.

Row | SMILES | IC50 [1] | Binding Level (RU) [3] | inhibition at 0.3 mg/kg [2] | Judgment [3]
1 | O=c1ccc(-c2nc(C(O)(CO)CO)oc2-c2ccc(F)cc2F)cn1-c1c(F)cccc1F [Example 7 (39), 1-(2,6-difluorophenyl)-5-{5-(2,4-difluorophenyl)-2-[1,2-dihydroxy-1-(hydroxymethyl)ethyl]-1,3-oxazol-4-yl}-2(1H)-pyridinone] | 1.8 nM | 11.1 RU | 64% | Negative
2 | C[C@@](O)(CO)c1nc(-c2ccc(=O)n(-c3c(F)cccc3F)c2)c(-c2ccc(F)cc2F)o1 [Example 167 (1), 1-(2,6-difluorophenyl)-5-{5-(2,4-difluorophenyl)-2-[(1R)-1,2-dihydroxy-1-methylethyl]-1,3-oxazol-4-yl}-2(1H)-pyridinone] | 0.8 nM | 19.6 RU | 73% | Negative
3 | C[C@](O)(CO)c1nc(-c2ccc(=O)n(-c3c(F)cccc3F)c2)c(-c2ccc(F)cc2F)o1 [Example 167 (2), 1-(2,6-difluorophenyl)-5-{5-(2,4-difluorophenyl)-2-[(1S)-1,2-dihydroxy-1-methylethyl]-1,3-oxazol-4-yl}-2(1H)-pyridinone] | 1.1 nM | 22.2 RU | 64% | Negative
4 | O=c1ccc(-c2oc(C(O)(CO)CO)nc2-c2ccc(F)cc2F)cn1-c1c(F)cccc1F [Example 223, 1-(2,6-difluorophenyl)-5-{4-(2,4-difluorophenyl)-2-[1,2-dihydroxy-1-(hydroxymethyl)ethyl]-1,3-oxazol-5-yl}-2(1H)-pyridinone] | 2.1 nM | 8.7 RU | 72% | Negative
5 | CC(C)(O)[C@@H](O)c1nc(-c2ccc(=O)n(-c3c(F)cccc3F)c2)c(-c2ccc(F)cc2F)o1 [Example 227 (1), 1-(2,6-difluorophenyl)-5-{5-(2,4-difluorophenyl)-2-[(1R)-1,2-dihydroxy-2-methylpropyl]-1,3-oxazol-4-yl}-2(1H)-pyridinone] | 0.7 nM | 21.0 RU | 88% | Negative
6 | CC(C)(O)[C@H](O)c1nc(-c2ccc(=O)n(-c3c(F)cccc3F)c2)c(-c2ccc(F)cc2F)o1 [Example 227, 1-(2,6-difluorophenyl)-5-{5-(2,4-difluorophenyl)-2-[(1S)-1,2-dihydroxy-2-methylpropyl]-1,3-oxazol-4-yl}-2(1H)-pyridinone] | 1.7 nM | 22.5 RU | 65% | Negative

Further lines, with some results ahead:

Row | IC50 [1] | Binding Level (RU) [3] | SMILES | inhibition at 0.3 mg/kg [2] | Judgment [3]
7 | 1.7 nM | 18.3 RU | CC(C)(O)c1nc(-c2ccc(=O)n(-c3c(F)cccc3F)c2)c(-c2ccc(F)cc2F)o1 [Example 7 (21), 1-(2,6-difluorophenyl)-5-[5-(2,4-difluorophenyl)-2-(1-hydroxy-1-methylethyl)-1,3-oxazol-4-yl]-2(1H)-pyridinone] | 85% | Negative
8 | 0.9 nM | 14.7 RU | CC(C)(O)[C@H](O)c1nc(-c2ccc(F)cc2F)c(-c2ccc(=O)n(-c3c(F)cccc3F)c2)o1 [Example 206, 1-(2,6-difluorophenyl)-5-{4-(2,4-difluorophenyl)-2-[(1S)-1,2-dihydroxy-2-methylpropyl]-1,3-oxazol-5-yl}-2(1H)-pyridinone] | 79% | Negative
9 | 0.6 nM | 12.8 RU | CC(C)(O)[C@@H](O)c1nc(-c2ccc(F)cc2F)c(-c2ccc(=O)n(-c3c(F)cccc3F)c2)o1 [Example 207, 1-(2,6-difluorophenyl)-5-{4-(2,4-difluorophenyl)-2-[(1R)-1,2-dihydroxy-2-methylpropyl]-1,3-oxazol-5-yl}-2(1H)-pyridinone] | 94% | Negative
10 | 0.6 nM | 11.1 RU | C[C@@](O)(CO)c1nc(-c2ccc(F)cc2F)c(-c2ccc(=O)n(-c3c(F)cccc3F)c2)o1 [Example 211, 1-(2,6-difluorophenyl)-5-{4-(2,4-difluorophenyl)-2-[(1R)-1,2-dihydroxy-1-methylethyl]-1,3-oxazol-5-yl}-2(1H)-pyridinone] | 85% | Negative
11 | 1.4 nM | 15.5 RU | CC(C)(O)Cc1nc(-c2ccc(F)cc2F)c(-c2ccc(=O)n(-c3c(F)cccc3F)c2)o1 [Example 220, 1-(2,6-difluorophenyl)-5-[4-(2,4-difluorophenyl)-2-(2-hydroxy-2-methylpropyl)-1,3-oxazol-5-yl]-2(1H)-pyridinone] | 88% | Negative
